Experimental data from PubChem BioAssay AID2060330 (Molecular Pharmacology Branch, DTP, NCI, 2025).

System: LG0703-F948-PDC spheroids with HUVEC/MSC, viability
Test: Anticancer human tumor LG0703-F948-PDC patient-derived lung adenocarcinoma cell line growth inhibition [IpAb]
Conditions: for IC50: curve of first compound; for viability, T/C: stronger effect = lower value
Method in brief: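 Spheroids of 60% malignant cells, 25% HUVEC and 15% MSC were exposed to targeted agents combined with ipatasertib or abemaciclib. Doses started at or near clinical Cmax (10 microM when unknown) and fell in half-log steps.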

[1] = second compound 0.01 µM, first compound 0.0316 µM
[2] = second compound 0.01 µM, first compound 0.1 µM
[3] = second compound 0.01 µM, first compound 0.316 µM
[4] = second compound 0.01 µM, first compound 1 µM
[5] = second compound 0.01 µM, first compound 3.16 µM
[6] = second compound 0.01 µM, first compound 10 µM
[7] = second compound 0.0316 µM, first compound 0.0316 µM
[8] = second compound 0.0316 µM, first compound 0.1 µM
[9] = second compound 0.0316 µM, first compound 0.316 µM
[10] = second compound 0.0316 µM, first compound 1 µM
[11] = second compound 0.0316 µM, first compound 3.16 µM
[12] = second compound 0.0316 µM, first compound 10 µM
[13] = second compound 0.1 µM, first compound 0.0316 µM
[14] = second compound 0.1 µM, first compound 0.1 µM
[15] = second compound 0.1 µM, first compound 0.316 µM
[16] = second compound 0.1 µM, first compound 1 µM
[17] = second compound 0.1 µM, first compound 3.16 µM
[18] = second compound 0.1 µM, first compound 10 µM
[19] = second compound 0.316 µM, first compound 0.0316 µM
[20] = second compound 0.316 µM, first compound 0.1 µM
[21] = second compound 0.316 µM, first compound 0.316 µM
[22] = second compound 0.316 µM, first compound 1 µM
[23] = second compound 0.316 µM, first compound 3.16 µM
[24] = second compound 0.316 µM, first compound 10 µM
[25] = second compound 1 µM, first compound 0.0316 µM
[26] = second compound 1 µM, first compound 0.1 µM
[27] = second compound 1 µM, first compound 0.316 µM
[28] = second compound 1 µM, first compound 1 µM
[29] = second compound 1 µM, first compound 3.16 µM
[30] = second compound 1 µM, first compound 10 µM
[31] = second compound 0.01 µM, first compound 0.00316 µM
[32] = second compound 0.01 µM, first compound 0.01 µM
[33] = second compound 0.0316 µM, first compound 0.00316 µM
[34] = second compound 0.0316 µM, first compound 0.01 µM
[35] = second compound 0.1 µM, first compound 0.00316 µM
[36] = second compound 0.1 µM, first compound 0.01 µM
[37] = second compound 0.316 µM, first compound 0.00316 µM
[38] = second compound 0.316 µM, first compound 0.01 µM
[39] = second compound 1 µM, first compound 0.00316 µM
[40] = second compound 1 µM, first compound 0.01 µM
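Also: spheroids exposed to compounds for seven days before readout.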
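For viability, T/C in this document: T/C percent relative to DMSO vehicle wells set as 100% viability.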

Row | Structure (SMILES) | IC50 (second compound 0.01 µM) [nM] | IC50 (second compound 0.0316 µM) [nM] | IC50 (second compound 0.1 µM) [nM] | IC50 (second compound 0.316 µM) [nM] | IC50 (second compound 1 µM) [nM] | viability, T/C [1] [%] | viability, T/C [2] [%] | viability, T/C [3] [%] | viability, T/C [4] [%] | viability, T/C [7] [%] | viability, T/C [8] [%] | viability, T/C [9] [%] | viability, T/C [10] [%] | viability, T/C [13] [%] | viability, T/C [14] [%] | viability, T/C [15] [%] | viability, T/C [19] [%] | viability, T/C [20] [%] | viability, T/C [25] [%] | viability, T/C [26] [%] | also measured
1 | C=CCn1c(=O)c2cnc(Nc3ccc(N4CCN(C)CC4)cc3)nc2n1-c1cccc(C(C)(C)O)n1 + CCN1CCN(Cc2ccc(Nc3ncc(F)c(-c4cc(F)c5nc(C)n(C(C)C)c5c4)n3)nc2)CC1 | 1160 | 1010 | 898 | 862 | 421 | 120 | 101 | 86 | 58.9 | 99.6 | 94.1 | 78.7 | 53.2 | 95.8 | 76.5 | 71.2 | 85.3 | 79.6 | 88.4 | 69.8 | viability, T/C [5]: 17.3%; viability, T/C [6]: 8.27%; viability, T/C [11]: 16.6%; viability, T/C [12]: 6.85%; viability, T/C [16]: 53.5%; viability, T/C [17]: 16%; viability, T/C [18]: 4.26%; viability, T/C [21]: 69.4%; viability, T/C [22]: 47.7%; viability, T/C [23]: 21.4%; viability, T/C [24]: 7.46%; viability, T/C [27]: 51.8%; viability, T/C [28]: 40.1%; viability, T/C [29]: 21.8%; viability, T/C [30]: 3.5%
2 | CC(C)n1nc(-c2ccc3oc(N)nc3c2)c2c(N)ncnc21 + CCN1CCN(Cc2ccc(Nc3ncc(F)c(-c4cc(F)c5nc(C)n(C(C)C)c5c4)n3)nc2)CC1 | 4.38 | 3.3 | 4.23 | 6.16 | 3.98 | 24 | 21.4 | – | – | 22.3 | 21.8 | – | – | 29.3 | 22.3 | – | 32 | 24.8 | 44.1 | 28.8 | viability, T/C (second compound 0.01 µM, first compound 0.000316 µM): 112%; viability, T/C (second compound 0.01 µM, first compound 0.001 µM): 78.6%; viability, T/C [31]: 56.5%; viability, T/C [32]: 38%; viability, T/C (second compound 0.0316 µM, first compound 0.000316 µM): 87.9%; viability, T/C (second compound 0.0316 µM, first compound 0.001 µM): 70.1%; viability, T/C [33]: 52%; viability, T/C [34]: 33.9%; viability, T/C (second compound 0.1 µM, first compound 0.000316 µM): 87.4%; viability, T/C (second compound 0.1 µM, first compound 0.001 µM): 71.2%; viability, T/C [35]: 52.1%; viability, T/C [36]: 40.5%; viability, T/C (second compound 0.316 µM, first compound 0.000316 µM): 82.5%; viability, T/C (second compound 0.316 µM, first compound 0.001 µM): 77.1%; viability, T/C [37]: 58.4%; viability, T/C [38]: 43%; viability, T/C (second compound 1 µM, first compound 0.000316 µM): 90%; viability, T/C (second compound 1 µM, first compound 0.001 µM): 65%; viability, T/C [39]: 48.1%; viability, T/C [40]: 46.6%
3 | CC1(C)CCC(CN2CCN(c3ccc(C(=O)NS(=O)(=O)c4ccc(NCC5CCOCC5)c([N+](=O)[O-])c4)c(Oc4cnc5[nH]ccc5c4)c3)CC2)=C(c2ccc(Cl)cc2)C1 + CCN1CCN(Cc2ccc(Nc3ncc(F)c(-c4cc(F)c5nc(C)n(C(C)C)c5c4)n3)nc2)CC1 | 5080 | 5000 | 4920 | 4120 | 1290 | 102 | 100 | 100 | 87.2 | 81.8 | 102 | 84.3 | 91 | 92.4 | 86.8 | 72.3 | 87.9 | 88.8 | 85 | 79 | viability, T/C [5]: 77.9%; viability, T/C [6]: 13.5%; viability, T/C [11]: 75.3%; viability, T/C [12]: 11.4%; viability, T/C [16]: 88.5%; viability, T/C [17]: 73.8%; viability, T/C [18]: 11.3%; viability, T/C [21]: 79.9%; viability, T/C [22]: 79%; viability, T/C [23]: 62.6%; viability, T/C [24]: 11.1%; viability, T/C [27]: 46.9%; viability, T/C [28]: 65.8%; viability, T/C [29]: 36.9%; viability, T/C [30]: 2.51%
4 | CCCS(=O)(=O)Nc1ccc(F)c(C(=O)c2c[nH]c3ncc(-c4ccc(Cl)cc4)cc23)c1F + CCN1CCN(Cc2ccc(Nc3ncc(F)c(-c4cc(F)c5nc(C)n(C(C)C)c5c4)n3)nc2)CC1 | > 10000 | > 10000 | > 10000 | > 10000 | > 10000 | 112 | 115 | 101 | 99.1 | 94.5 | 86.9 | 95.1 | 89.5 | 91 | 81.6 | 91.7 | 89 | 97.3 | 90.6 | 68.2 | viability, T/C [5]: 100%; viability, T/C [6]: 59.5%; viability, T/C [11]: 90.9%; viability, T/C [12]: 67.2%; viability, T/C [16]: 90.9%; viability, T/C [17]: 87.2%; viability, T/C [18]: 59.1%; viability, T/C [21]: 76.6%; viability, T/C [22]: 88.1%; viability, T/C [23]: 79%; viability, T/C [24]: 51.5%; viability, T/C [27]: 52.5%; viability, T/C [28]: 80%; viability, T/C [29]: 75.6%; viability, T/C [30]: 44.8%
5 | COc1c(OCCCN2CCOCC2)ccc2c3n(c(=NC(=O)c4cnc(N)nc4)nc12)CCN3 + CCN1CCN(Cc2ccc(Nc3ncc(F)c(-c4cc(F)c5nc(C)n(C(C)C)c5c4)n3)nc2)CC1 | 36.7 | 32.2 | 30.6 | 25.3 | 17 | 58.3 | 20.7 | 5.32 | 3.66 | 47.6 | 22.8 | 4.08 | 3.07 | 48 | 21.2 | 5.61 | 43.7 | 23.7 | 33.9 | 24.6 | viability, T/C [31]: 101%; viability, T/C [32]: 79.2%; viability, T/C [33]: 90.4%; viability, T/C [34]: 82.8%; viability, T/C [35]: 85.4%; viability, T/C [36]: 77.1%; viability, T/C [16]: 3.57%; viability, T/C [37]: 81.6%; viability, T/C [38]: 71.2%; viability, T/C [21]: 9.48%; viability, T/C [22]: 9.41%; viability, T/C [39]: 82.3%; viability, T/C [40]: 63%; viability, T/C [27]: 19.3%; viability, T/C [28]: 11.8%
6 | Cc1nc(NC(=O)N2CCCC2C(N)=O)sc1-c1ccnc(C(C)(C)C(F)(F)F)c1 (stereo not given) + CCN1CCN(Cc2ccc(Nc3ncc(F)c(-c4cc(F)c5nc(C)n(C(C)C)c5c4)n3)nc2)CC1 | 1480 | 1120 | 676 | 955 | 421 | 93.3 | 88.1 | 81.3 | 61.2 | 95.3 | 78.9 | 64.9 | 60.9 | 83.6 | 83.2 | 49.9 | 81.9 | 79.3 | 75.8 | 65.5 | viability, T/C [5]: 28.8%; viability, T/C [6]: 3.09%; viability, T/C [11]: 25.5%; viability, T/C [12]: 2.8%; viability, T/C [16]: 46.4%; viability, T/C [17]: 33%; viability, T/C [18]: 3.21%; viability, T/C [21]: 60.9%; viability, T/C [22]: 50.8%; viability, T/C [23]: 30.6%; viability, T/C [24]: 9.55%; viability, T/C [27]: 40.8%; viability, T/C [28]: 50%; viability, T/C [29]: 32.6%; viability, T/C [30]: 12.4%
